# Experimental data reported in patent publication US4189497A, “Method of treating arthritic disease” (American Cyanamid Company, priority 1978, dated 1980).
# Tested on: Adjuvant Arthritis in Rats
# Assay: Adjuvant induced arthritis in rats (Freund's adjuvant, right hind paw)
# From the text: Adjuvant induced experimental polyarthritis is a specific systemic disease of the rat which shares interesting similarities with rheumatoid arthritis. Specifically, the histology of the two diseases bears a remarkable resemblance as shown by C. M. Pearson et al., Am. J. Pathol. 42, 73 (1963). E. M. Glenn, Am. J. Vet. Res. 27 (116) 339 (1966) has classified adjuvant induced polyarthritis as a crippling and permanent deformity resulting from diffuse connective tissue involvement around certain susceptible joints in the rat. Zahiri et al., Can. Med. Ass. J. 101, 269 (1969) have shown that the fusiform swelling of the distal joints is associated with edema, congestion and synovitis including pannus formation, all of which precede the ultimate destruction of bone and cartilage. Furthermore, Zahiri et al. indicate that the cartilage destruction in the joint is due to an invasive pannus which originates in the marginal synovium and extends across the articular surface to erode it. […] See S. Wong et al., J. Pharm. & Exptl. Ther. 185, 127 (1973) and G. R. Bobalick et al., Agents & Actions 4, 364 (1974).
# Groups of three Royal Hart, Wistar strain rats weighing 200±10 grams each were injected intradermally in the right hind paw with Freund's adjuvant (dried human tubercle bacilli in a mineral oil vehicle) at a dose of 2 mg./kg. of body weight. Test compound was administered orally in a 1.5% starch vehicle at various doses once daily on days 0 through 13 post challenge. […] On the 14th and 21st day post challenge the diameter of the injected paw (primary lesion) was measured by micrometer caliper. The volume of inflamed paws were estimated from these measurements and the results are expressed as percent inhibition of swelling as compared to controls. At the same time, the other inflamed sites, such as ears, paws and tail (secondary lesions) were observed and each rat was graded as to degree of inflammation and swelling present. The grading is based on a scale of 0 to 24, where 0 represents a complete absence of induced arthritic nodules and 24 represents the maximum degree of inflammation. The mean grade for each treated group is calculated and the effects of each compound are expressed as percent inhibition of the control grade.
# [1] = oral dose 50 mg./kg. once daily days 0-13
# [2] = oral dose 100 mg./kg. once daily days 0-13
# [3] = oral dose 200 mg./kg. once daily days 0-13
# [4] = oral dose 400 mg./kg. once daily days 0-13
# [5] = oral dose 0.25 mg./kg. once daily days 0-13
# [6] = oral dose 0.5 mg./kg. once daily days 0-13
# [7] = oral dose 1 mg./kg. once daily days 0-13
# [8] = oral dose 2 mg./kg. once daily days 0-13
# [9] = oral dose 18.8 mg./kg. once daily days 0-13
# [10] = oral dose 37.5 mg./kg. once daily days 0-13
# [11] = oral dose 75 mg./kg. once daily days 0-13
# [12] = oral dose 150 mg./kg. once daily days 0-13
compound,measurement,setting,value
CC(=O)Oc1ccccc1C(=O)O [Aspirin],% Inhibition of Swelling (primary lesion) Day 14,[1],23%
same,Mean Weight Gain Day 14,[1],56 grams
same,% Inhibition of Swelling (primary lesion) Day 21,[1],3%
same,Mean Weight Gain Day 21,[1],44 grams
same,% Inhibition of Swelling (primary lesion) Day 14,[2],36%
same,Mean Weight Gain Day 14,[2],48 grams
same,% Inhibition of Swelling (primary lesion) Day 21,[2],13%
same,Mean Weight Gain Day 21,[2],53 grams
same,% Inhibition of Swelling (primary lesion) Day 14,[3],48%
same,Mean Weight Gain Day 14,[3],40 grams
same,% Inhibition of Swelling (primary lesion) Day 21,[3],27%
same,Mean Weight Gain Day 21,[3],44 grams
same,% Inhibition of Swelling (primary lesion) Day 14,[4],73%
same,Mean Weight Gain Day 14,[4],41 grams
same,% Inhibition of Swelling (primary lesion) Day 21,[4],48%
same,Mean Weight Gain Day 21,[4],55 grams
"N#CCC(=O)c1cccs1 [B-oxo-2-thiophenepropionitrile, β-oxo-2-thiophenepropionitrile]",progression of the arthritis and associated joint deterioration,"adjuvant arthritic rats, oral dosing, summary of Table I",appears to suppress the progression of the arthritis and associated joint deterioration
same,% Inhibition of Control Grade (secondary lesion) Day 14,[1],46%
same,% Inhibition of Swelling (primary lesion) Day 14,[1],46%
same,Mean Weight Gain Day 14,[1],56 grams
same,% Inhibition of Control Grade (secondary lesion) Day 21,[1],0%
same,% Inhibition of Swelling (primary lesion) Day 21,[1],18%
same,Mean Weight Gain Day 21,[1],48 grams
same,Dead/Treated At 21 Days,"oral dose 50 mg./kg. once daily days 0-13, adjuvant arthritic rats",3/36
same,% Inhibition of Control Grade (secondary lesion) Day 14,[2],58%
same,% Inhibition of Swelling (primary lesion) Day 14,[2],58%
same,Mean Weight Gain Day 14,[2],52 grams
same,% Inhibition of Control Grade (secondary lesion) Day 21,[2],10%
same,% Inhibition of Swelling (primary lesion) Day 21,[2],42%
same,Mean Weight Gain Day 21,[2],69 grams
same,Dead/Treated At 21 Days,"oral dose 100 mg./kg. once daily days 0-13, adjuvant arthritic rats",3/18
same,% Inhibition of Control Grade (secondary lesion) Day 14,[3],72%
same,% Inhibition of Swelling (primary lesion) Day 14,[3],72%
same,Mean Weight Gain Day 14,[3],34 grams
same,% Inhibition of Control Grade (secondary lesion) Day 21,[3],32%
same,% Inhibition of Swelling (primary lesion) Day 21,[3],29%
same,Mean Weight Gain Day 21,[3],54 grams
same,Dead/Treated At 21 Days,"oral dose 200 mg./kg. once daily days 0-13, adjuvant arthritic rats",2/18
COc1ccc2c(c1)c(CC(=O)O)c(C)n2C(=O)c1ccc(Cl)cc1 [Indomethacin],% Inhibition of Swelling (primary lesion) Day 14,[5],30%
same,Mean Weight Gain Day 14,[5],51 grams
same,% Inhibition of Swelling (primary lesion) Day 21,[5],4%
same,Mean Weight Gain Day 21,[5],57 grams
same,% Inhibition of Swelling (primary lesion) Day 14,[6],40%
same,Mean Weight Gain Day 14,[6],53 grams
same,% Inhibition of Swelling (primary lesion) Day 21,[6],20%
same,Mean Weight Gain Day 21,[6],51 grams
same,% Inhibition of Swelling (primary lesion) Day 14,[7],46%
same,Mean Weight Gain Day 14,[7],63 grams
same,% Inhibition of Swelling (primary lesion) Day 21,[7],19%
same,Mean Weight Gain Day 21,[7],65 grams
same,% Inhibition of Swelling (primary lesion) Day 14,[8],51%
same,Mean Weight Gain Day 14,[8],68 grams
same,% Inhibition of Swelling (primary lesion) Day 21,[8],24%
same,Mean Weight Gain Day 21,[8],68 grams
CCCCC1C(=O)N(c2ccccc2)N(c2ccccc2)C1=O [Phenylbutazone],% Inhibition of Swelling (primary lesion) Day 14,[9],31%
same,Mean Weight Gain Day 14,[9],50 grams
same,% Inhibition of Swelling (primary lesion) Day 21,[9],7%
same,Mean Weight Gain Day 21,[9],45 grams
same,% Inhibition of Swelling (primary lesion) Day 14,[10],56%
same,Mean Weight Gain Day 14,[10],53 grams
same,% Inhibition of Swelling (primary lesion) Day 21,[10],14%
same,Mean Weight Gain Day 21,[10],53 grams
same,% Inhibition of Swelling (primary lesion) Day 14,[11],62%
same,Mean Weight Gain Day 14,[11],51 grams
same,% Inhibition of Swelling (primary lesion) Day 21,[11],28%
same,Mean Weight Gain Day 21,[11],50 grams
same,% Inhibition of Swelling (primary lesion) Day 14,[12],75%
same,Mean Weight Gain Day 14,[12],40 grams
same,% Inhibition of Swelling (primary lesion) Day 21,[12],44%
same,Mean Weight Gain Day 21,[12],50 grams
